Measurements taken from PMC9653173, “Trotabresib (CC-90010) in combination with adjuvant temozolomide or concomitant temozolomide plus radiotherapy in patients with newly diagnosed glioblastoma” (Neuro-Oncology Advances, 2022).
Read-outs that look alike come from different tables or passages of the source.

Experiment: Trotabresib plasma pharmacokinetics, CC-90010-GBM-002
Assay type: in vivo, human
Settings: for Cmax: read-out: Cmax, GM (GCV%)
Experimental: The sample size was not based on strict statistical power calculations. Safety, efficacy, and pharmacodynamic analyses were summarized using descriptive statistics. Plasma pharmacokinetic parameters were calculated by the noncompartmental analysis method from plasma concentration–time profiles.

In the case of `Cn1cc(-c2cc(S(C)(=O)=O)ccc2OCC2CC2)c2ccccc2c1=O` [Trotabresib], the “Reduction in plasma trotabresib concentration” value (168 hours post-dose) is reported as > 75%, the “mean t½” value (all cohorts, standard deviation ± 27.2) is reported as ~ 74 h and the “Increase in exposure with dose” value (both treatment settings, 15-45 mg) is reported as “proportional to dose”. For the same compound, the Cmax (human, plasma, oral, adjuvant trotabresib 15 mg + TMZ, Day 1) was 201 ng/mL, the Tmax (human, plasma, oral, adjuvant trotabresib 15 mg + TMZ, Day 1, read-out: tmax, median (range)) was 1 h and the Cmax (human, plasma, oral, adjuvant trotabresib 15 mg + TMZ, Day 4) was 433 ng/mL. For the same compound, the Tmax (human, plasma, oral, adjuvant trotabresib 15 mg + TMZ, Day 4, read-out: tmax, median (range)) was 1.5 h, the Cmax (human, plasma, oral, adjuvant trotabresib 30 mg + TMZ, Day 1) was 306 ng/mL and the Tmax (human, plasma, oral, adjuvant trotabresib 30 mg + TMZ, Day 1, read-out: tmax, median (range)) was 2 h. It also gave a Cmax (human, plasma, oral, adjuvant trotabresib 30 mg + TMZ, Day 4) of 822 ng/mL, a Tmax (human, plasma, oral, adjuvant trotabresib 30 mg + TMZ, Day 4, read-out: tmax, median (range)) of 1.5 h and a Cmax (human, plasma, oral, adjuvant trotabresib 45 mg + TMZ, Day 1) of 522 ng/mL. It also gave a Tmax (human, plasma, oral, adjuvant trotabresib 45 mg + TMZ, Day 1, read-out: tmax, median (range)) of 2 h, a Cmax (human, plasma, oral, adjuvant trotabresib 45 mg + TMZ, Day 4) of 1160 ng/mL and a Tmax (human, plasma, oral, adjuvant trotabresib 45 mg + TMZ, Day 4, read-out: tmax, median (range)) of 1.5 h. It also gave a half-life (human, plasma, oral, all cohorts, standard deviation ± 27.2, read-out: mean t½ (converted)) of 74.2 h, a Cmax (human, plasma, oral, concomitant trotabresib 15 mg + TMZ + RT, Day 1) of 167 ng/mL and a Tmax (human, plasma, oral, concomitant trotabresib 15 mg + TMZ + RT, Day 1, read-out: tmax, median (range)) of 2 h. For the same compound, the Cmax (human, plasma, oral, concomitant trotabresib 15 mg + TMZ + RT, Day 4) was 383 ng/mL, the Tmax (human, plasma, oral, concomitant trotabresib 15 mg + TMZ + RT, Day 4, read-out: tmax, median (range)) was 1.3 h and the Cmax (human, plasma, oral, concomitant trotabresib 30 mg + TMZ + RT, Day 1) was 309 ng/mL. The Tmax (human, plasma, oral, concomitant trotabresib 30 mg + TMZ + RT, Day 1, read-out: tmax, median (range)) was 2 h, the Cmax (human, plasma, oral, concomitant trotabresib 30 mg + TMZ + RT, Day 4) was 874 ng/mL and the Tmax (human, plasma, oral, concomitant trotabresib 30 mg + TMZ + RT, Day 4, read-out: tmax, median (range)) was 1.5 h. The Tmax (human, plasma, oral, day 4, all cohorts, read-out: tmax) was 0.5 to 4 h.
